Test results: ChEMBL document CHEMBL4706560, “Design, synthesis and biological evaluation of indole-2-one derivatives as potent BRD4 inhibitors” (Eur J Med Chem, 2020)

Tests used:
[1] = target: T1, Bromodomain-containing protein 4 (Homo sapiens, UniProt O60885); assay: Inhibition of BRD4 BD1 (unknown origin) preincubated for 15 mins followed by peptide addition and measured after 60 mins by TR-FRET assay
[2] = target: T1, Bromodomain-containing protein 4; assay: Inhibition of BRD4 BD2 (unknown origin) preincubated for 15 mins followed by peptide addition and measured after 60 mins by TR-FRET assay
[3] = target: T2, Bromodomain-containing protein 2 (Homo sapiens, UniProt P25440); assay: Inhibition of BRD2 BD1 (unknown origin) preincubated for 15 mins followed by peptide addition and measured after 60 mins by TR-FRET assay
T2 sequence (P25440 whole entry): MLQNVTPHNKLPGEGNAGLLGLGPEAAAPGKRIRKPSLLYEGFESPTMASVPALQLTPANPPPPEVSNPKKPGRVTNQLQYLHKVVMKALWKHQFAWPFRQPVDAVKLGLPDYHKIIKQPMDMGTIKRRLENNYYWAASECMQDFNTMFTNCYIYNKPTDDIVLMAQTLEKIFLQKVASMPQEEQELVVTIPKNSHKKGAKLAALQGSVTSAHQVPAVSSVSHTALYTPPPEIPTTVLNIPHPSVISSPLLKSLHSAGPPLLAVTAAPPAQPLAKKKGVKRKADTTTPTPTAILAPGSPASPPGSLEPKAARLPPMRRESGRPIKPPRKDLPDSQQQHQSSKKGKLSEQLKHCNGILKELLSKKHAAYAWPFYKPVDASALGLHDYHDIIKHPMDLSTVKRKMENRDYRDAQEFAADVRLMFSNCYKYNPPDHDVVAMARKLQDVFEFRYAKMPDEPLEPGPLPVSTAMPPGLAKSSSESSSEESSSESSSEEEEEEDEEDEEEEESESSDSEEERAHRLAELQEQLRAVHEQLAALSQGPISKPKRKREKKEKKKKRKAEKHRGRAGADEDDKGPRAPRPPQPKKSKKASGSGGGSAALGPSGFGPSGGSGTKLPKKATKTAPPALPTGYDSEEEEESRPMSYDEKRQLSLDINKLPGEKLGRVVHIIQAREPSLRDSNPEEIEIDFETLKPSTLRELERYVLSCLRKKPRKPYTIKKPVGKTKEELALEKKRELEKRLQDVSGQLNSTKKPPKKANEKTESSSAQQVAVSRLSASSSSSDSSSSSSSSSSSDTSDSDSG

[4] = target: T2, Bromodomain-containing protein 2; assay: Inhibition of BRD2 BD2 (unknown origin) preincubated for 15 mins followed by peptide addition and measured after 60 mins by TR-FRET assay
[5] = Cmax in Wistar rat at 15 mg/kg, po measured up to 24 hrs by LC-MS/MS analysis; type: ADME, organism-based; parameters: route oral, dose 15 mg/kg, time <=24; conditions: in vivo
[6] = Tmax in Wistar rat at 15 mg/kg, po measured up to 24 hrs by LC-MS/MS analysis; type: ADME, organism-based; conditions: in vivo
[7] = Half life in Wistar rat at 5 mg/kg, iv measured up to 24 hrs by LC-MS/MS analysis; type: ADME, organism-based; conditions: in vivo
[8] = Half life in Wistar rat at 15 mg/kg, po measured up to 24 hrs by LC-MS/MS analysis; type: ADME, organism-based; conditions: in vivo
[9] = Apparent clearance during terminal phase in Wistar rat at 5 mg/kg, iv measured up to 24 hrs by LC-MS/MS analysis; type: ADME, organism-based; conditions: in vivo
[10] = Apparent clearance during terminal phase in Wistar rat at 15 mg/kg, po measured up to 24 hrs by LC-MS/MS analysis; type: ADME, organism-based; conditions: in vivo, read-out: CLz/F (converted)
[11] = AUC(0 to t) in Wistar rat at 5 mg/kg, iv measured up to 24 hrs by LC-MS/MS analysis; type: ADME, organism-based; parameters: route intravenous, dose 5 mg/kg, time <=24; conditions: in vivo
[12] = AUC(0 to t) in Wistar rat at 15 mg/kg, po measured up to 24 hrs by LC-MS/MS analysis; type: ADME, organism-based; parameters: route oral, dose 15 mg/kg, time <=24; conditions: in vivo
[13] = AUC(0 to infinity) in Wistar rat at 5 mg/kg, iv measured up to 24 hrs by LC-MS/MS analysis; type: ADME, organism-based; parameters: route intravenous, dose 5 mg/kg, time <=24; conditions: in vivo
[14] = AUC(0 to infinity) in Wistar rat at 15 mg/kg, po measured up to 24 hrs by LC-MS/MS analysis; type: ADME, organism-based; parameters: route oral, dose 15 mg/kg, time <=24; conditions: in vivo
[15] = Oral bioavailability in Wistar rat at 15 mg/kg measured up to 24 hrs by LC-MS/MS analysis; type: ADME, organism-based; conditions: in vivo
HL-60 = assay: Antiproliferative activity against human HL60 cells incubated for 72 hrs by CCK8 assay; conditions: HL-60, 72 h
HT-29 = assay: Antiproliferative activity against human HT29 cells incubated for 72 hrs by MTT assay; conditions: HT-29, 72 h
WI-38 = assay: Antiproliferative activity against human WI-38 cells incubated for 72 hrs by MTT assay; conditions: WI-38, 72 h

C/C=C1\C(=O)Nc2ccc(NS(=O)(=O)c3ccccc3OC)cc21
IC50 [1]: 36 nM

CC(C)=C1C(=O)Nc2ccc(NS(=O)(=O)c3ccc4ccccc4c3)cc21
IC50 [1]: 203 nM

COc1ccc(F)cc1S(=O)(=O)Nc1ccc2c(c1)C(=C(C)C)C(=O)N2
IC50 [1]: 34 nM

CC(C)=C1C(=O)Nc2ccc(NS(=O)(=O)c3ccccc3Br)cc21
IC50 [1]: 25 nM
IC50 [2]: 43 nM
IC50 [3]: 40 nM
IC50 [4]: 25 nM

CC(C)=C1C(=O)Nc2ccc(NS(=O)(=O)c3cccc4c(N(C)C)cccc34)cc21
IC50 [1]: 208 nM

CC(C)=C1C(=O)Nc2ccc(NS(=O)(=O)c3ccc4c(c3)CCO4)cc21
IC50 [1]: 92 nM

COc1ccccc1S(=O)(=O)Nc1ccc2c(c1)C(=C(C)C)C(=O)N2
IC50 [3]: 24 nM
IC50 [4]: 18 nM
Cmax [5]: 2180 ng/mL
Tmax [6]: 1 h
half-life [7]: 1.56 h
half-life [8]: 3.59 h
CLz/F [9]: 11.3 mL/min/kg
CL/F [10]: 17.2 mL/min/kg
AUC(0-t) at 24 h [11]: 7300 ng·h/mL
AUC(0-t) at 24 h [12]: 14400 ng·h/mL
AUC(0-inf) [13]: 7340 ng·h/mL
AUC(0-inf) [14]: 14600 ng·h/mL
bioavailability [15]: 66%

CC(C)=C1C(=O)Nc2ccc(NS(=O)(=O)c3cc(C)ccc3F)cc21
IC50 [1]: 20 nM

CC(C)=C1C(=O)Nc2ccc(NS(=O)(=O)c3cc(F)ccc3F)cc21
IC50 [1]: 56 nM

COc1ccc(C)cc1S(=O)(=O)Nc1ccc2c(c1)C(=C(C)C)C(=O)N2
IC50 [1]: 30 nM

COc1ccc(S(=O)(=O)Nc2ccc3c(c2)C(=C(C)C)C(=O)N3)cc1
IC50 [1]: 94 nM

Cc1sc2c(c1C)C(c1ccc(Cl)cc1)=N[C@@H](CC(=O)OC(C)(C)C)c1nnc(C)n1-2
IC50 (HL-60): 160 nM
IC50 (HT-29): 480 nM
IC50 (WI-38): 4970 nM

CC(C)=C1C(=O)Nc2ccc(NS(=O)(=O)C3CCCCC3)cc21
IC50 [1]: 22 nM

COc1ccccc1S(=O)(=O)Nc1ccc2c(c1)CN(C)C(=O)N2
IC50 (HL-60): 3990 nM
IC50 (HT-29): 14700 nM
IC50 (WI-38): 19800 nM

COc1ccccc1S(=O)(=O)Nc1ccc2c(c1)C(=C1CCC1)C(=O)N2
IC50 [1]: 26 nM

CC(C)=C1C(=O)Nc2ccc(NS(=O)(=O)c3cccc4ccccc34)cc21
IC50 [1]: 62 nM

CC/C=C1\C(=O)Nc2ccc(NS(=O)(=O)c3ccccc3OC)cc21
IC50 [1]: 114 nM

COc1ccc(Br)cc1S(=O)(=O)Nc1ccc2c(c1)C(=C(C)C)C(=O)N2
IC50 [1]: 23 nM
IC50 [2]: 21 nM
IC50 [3]: 39 nM
IC50 [4]: 22 nM
